Laboratory results taken from patent US8853164B2, “Oligopeptide improving differentiation of osteoblasts” (Osstemimplant Co., Ltd., priority 2010, dated 2014).

Columns and labels:
[1] = system: MG63 cells; test: Initial cell differentiation ability assay (ALP activity); type: cell-based; conditions: differentiation culture medium, measured at Day 3 and 8, relative to PEP111
Protocol: (§1) The effect of the oligopeptide disclosed herein on osteoblastic differentiation was examined by comparing ALP (alkaline phosphatase) activity as an initial differentiation marker of osteoblasts. In order to compare the differentiation ability of osteoblasts, MG63 cells were distributed to a 24-well plate at a concentration of 1×10^5 cells and incubated for 1 day. Then, the cell was treated with each of the PEP7 oligopeptide disclosed herein, and positive controls BMP-2 and PEP111 in a differentiation culture medium and incubated in a 37° C. CO2 incubator. The medium was replaced with a fresh one at 2-day intervals, the ALP activity was measured at Day 3 and 8 after the cultivation (FIG. 2).

[2] = system: MG63 cells; test: Calcification ability assay (Alizarin red S staining); type: cell-based; conditions: Day 14, Alizarin red S staining, relative to PEP111
Protocol: as §1
In order to examine whether the oligopeptide disclosed herein can successfully induce osteogenic differentiation, extracellular matrix calcification was observed. The cultivation was carried out according to the same conditions as described above. At Day 14 and 21, the culture solution was harvested and subjected to Alizarin red S staining (FIG. 5).

[3] = system: MG63 cells; test: Late cell differentiation ability assay (osteopontin production, human ELISA kit); type: cell-based; conditions: culture solution at Day 14, relative to PEP111
Protocol: as §1
(§2) The effect of the PEP7 oligopeptide on osteoblastic differentiation was examined by comparing the production amount of osteocalcin and osteopontin as a late differentiation marker of osteoblasts. The cultivation was carried out according to the same conditions as described above. At Day 14, the culture solution was harvested, and the amount of osteocalcin and osteopontin therein was measured by using a human ELISA kit (FIGS. 3 and 4).

[4] = system: BMP-specific receptor (BMPR-IA or BMPR-II); test: BMP specific binding assay (ELISA, absorbance at 595 nm); conditions: PEP7 1 μg/well coated, BMPR-IA or BMPR-II 1 μg/well; relative to PEP111
Protocol: PEP7 (1 μg/well) was added to an ELISA plate and incubated at 4° C. for 12 hours. After PEP7 was coated on the plate, BMPR-IA or BMPR-II (1 μg/well) was added thereto and reacted at room temperature for 2 hours, to obtain a PEP7-BMP receptor complex. A primary antibody specific for a BMP receptor (0.5 μg BMR-IA, BMPR-II) was added to the complex and reacted at room temperature for 1 hour. A secondary antibody (BMPR-IA or BMPR-II-Fc Ab-HRP) was then added to the resulting mixture and reacted at room temperature for 1 hour. After ABTS was added to the resulting mixture and reacted at room temperature for 30 minutes, an absorbance of the resulting mixture was measure at 595 nm (FIG. 1, wherein PEP111(A) means the sequence whose 9th amino acid was alanine, PEP111(P) means the sequence whose alanine was replaced with proline, and PEP111(T) means the sequence whose alanine was replaced with threonine).

[5] = system: MG63 cells; test: Late cell differentiation ability assay (osteocalcin production, human ELISA kit); type: cell-based; conditions: culture solution at Day 14, relative to PEP111
Protocol: as §1, §2

binding affinity to a BMP-specific receptor, higher than PEP111 [4]: about 23%
Sequence: KIPKPSSVPTELSAISMLYL (PEP7)
ALP (alkaline phosphatase) activity, higher than PEP111 [1]: 20%
calcification ability, higher than PEP111 [2]: about 19%
osteopontin production, more than PEP111 [3]: ≥ 21%
osteocalcin production, more than PEP111 [5]: ≥ 14%
